Data: patent EP4692089A1, “NITROGEN-CONTAINING HETEROCYCLIC COMPOUND AS AAK1 INHIBITOR” (Alicorn Pharmaceutical Co., Ltd., priority 2023, dated 2024)
Values joined by “and” are separate entries in the source; they are usually repeats but may differ in a detail not shown here. Equal entries are not always repeated.

Tests used:
AAK1 (30-330) protein [1] = target: T1, AAK1 (30-330) protein (Homo sapiens, UniProt Q2M2I8); assay: CETSA test of binding ability to AAK1 protein (Western blot)
T1 construct: (His)6x (N); TEV protease cleavage site (N); made in house; host or cells: Escherichia coli BL21(DE3)
Procedure: Experimental objective: To detect the binding ability of compounds to AAK1 protein by means of a CETSA experiment.
Background principle: The CETSA experiment is a molecular detection means for measuring the affinity between drugs and target proteins. […] When a candidate drug is co-incubated with a target protein, if the candidate drug is an inhibitor of AAK1, it can bind to AAK1. […] On the contrary, the stability of the AAK1 protein after heating will be poorer, and the amount of the detected protein will be lower. In this way, the binding ability of the drug to the target protein can be evaluated, which is used for the screening of AAK1 protein inhibitors.
(§1) Expression of AAK1 (30-330) protein: The AAK1 sequence (residues 30-330) was cloned into the pET24N vector with an N-terminal (His)6x tag and a tobacco etch virus (TEV) protease cleavage site. The constructed vector was transformed into Escherichia coli BL21(DE3). When the bacteria were cultured with shaking to reach an OD value of 0.6, 1 mM IPTG was added. […] The bacterial cells were collected and subjected to ultrasonic disruption. The supernatant was obtained by centrifugation, and the protein was purified using Ni-NTA. After dialysis, the concentration and purity of the protein were determined.
CETSA sample preparation: Samples were incubated with candidate drugs, control drugs, and control reagents separately for 30 minutes. Each group of samples was heated at approximately 10 pre-set temperature points. After being returned to room temperature, the samples were centrifuged at 20000 g, and the supernatants were collected. Protein samples were denatured by heating at 100°C for 10 minutes with a sample buffer. After the samples were returned to room temperature, Western blot detection was performed on them; the protein loading amount was controlled at 20 µg. […] The same operations were followed, and Western blot detection was conducted. Protein electrophoresis: The voltage for the stacking gel was set at 60 V, and that for the separating gel was set at 120 V. After electrophoresis, electrotransfer was initiated. Electrotransfer conditions were set at 250 mA for 2 h. Blocking with 5% BSA was performed for 1 h. A specific primary antibody was added, and incubation was carried out overnight at 4°C on a shaker. Washing with TBST was conducted 4 times, with 2.5 minutes each time. A secondary antibody was incubated on a shaker at room temperature for 1 h. Washing with TBST was conducted 4 times, with 2.5 minutes each time. ECL was used for development to detect the expression levels of AAK1 protein in different groups and at each temperature point. Western blot bands were processed and converted using Image J and GraphPad software to calculate EC50.

AAK1 (30-330) protein [2] = target: T1, AAK1 (30-330) protein; assay: AAK1 kinase assay (ADP generated, detected by HPLC); type: biochemical; settings: 3.5 nM AAK1, 22 µM ATP, 25°C, 3 h
Excerpt: Experimental objective: The objective of this test example is to test the effect of compounds on AAK1 kinase function.
Background principle: AAK1 phosphorylates the threonine residue in the micro-subunit of AP2 (AP2M1). In this process, ATP provides phosphate groups to generate ADP. Therefore, the activity of AAK1 kinase can be evaluated by detecting the amount of ADP generated.
as §1
The reaction mixture was incubated in a metal bath at 25°C for 3 h. The reaction was terminated by adding 1% SDS, and the amount of ADP generated was detected by HPLC. IC50 values were calculated using GraphPad software.

[3] = tested on: streptozotocin (STZ)-induced peripheral neuropathic pain (DPNP) in diabetic rat models; assay: Efficacy test in diabetic peripheral neuropathic pain (DPNP), Von Frey pain threshold; type: in vivo, SD rats; settings: for MWT (g) After modeling: before administration; for MWT (g) 2h: 2 h after administration; for MWT (g) 4 h: 4 h after administration; for MWT (g) 5 h: 5 h after administration; for MWT (g) 6h: 6 h after administration; for duration of analgesia: time after administration
Procedure: Experimental methods: After the adaptation period, the rats were tested for baseline plantar pain threshold using the Von Frey (Up-Down method) before modeling. Subsequently, except for the blank control group, all other rats were fasted for 16 hours with free access to water and then intraperitoneally injected with streptozotocin for modeling (65 mg/kg; 2 mL/kg). One week after modeling, blood was collected from the tail tip to detect blood glucose levels after a 4-hour fast. Rats with blood glucose levels higher than 16.7 mmol/L were considered diabetic.

[4] = Blood-brain distribution in DPNP model rats; settings: SD, rat; for concentration at 6 h: oral; for Kp at 6 h: brain/plasma, po
Procedure: Experimental objective: This experiment aims to investigate the analgesic effect of test compounds on streptozotocin (STZ)-induced peripheral neuropathic pain (DPNP) in diabetic rat models and the brain-blood distribution of the compounds associated with the efficacy, via single oral gavage (ig.) administration.
After successful modeling, the baseline plantar pain threshold of the rats was tested using the Von Frey (UP-Down method) as the baseline pain threshold before administration, and the rats were evenly grouped according to their pain thresholds. The groups included a blank control group, a model group, a positive control group (1 mg/kg), a Compound 26 (0.5 mg/kg) group, and a Compound 26 (1 mg/kg) group. The next day, the rats were administered the vehicle or corresponding drugs. At 2 h, 3 h, 4 h, 5 h, and 6 h after administration, the pain threshold of the plantar region on the affected side of rats was determined using Von Frey filaments to calculate the pain threshold improvement rate of the test compounds against neuropathic pain in diabetic rats, and to observe the time-effect relationship. After the experiment, rats from groups G3-G5 (numbers 1-3 per group) were sacrificed, and plasma and brain tissue samples were collected for testing.

T1 sequence (Q2M2I8 30-330): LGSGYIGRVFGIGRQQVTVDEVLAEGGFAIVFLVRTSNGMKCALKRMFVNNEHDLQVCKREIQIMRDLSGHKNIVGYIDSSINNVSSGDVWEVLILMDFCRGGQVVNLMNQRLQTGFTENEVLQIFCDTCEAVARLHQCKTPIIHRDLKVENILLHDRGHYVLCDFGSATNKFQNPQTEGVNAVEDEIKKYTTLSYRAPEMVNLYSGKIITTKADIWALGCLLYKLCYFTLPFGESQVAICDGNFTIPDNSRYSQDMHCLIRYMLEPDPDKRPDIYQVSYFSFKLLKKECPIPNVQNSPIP

EC50 (AAK1 (30-330) protein [1]): 10 to 100 nM | IC50 (AAK1 (30-330) protein [2]): 86.3 nM | concentration at 6 h ([4]; brain, 0.5 mg/kg): 62.5 ng/mL and 688 ng/g | concentration at 6 h ([4]; brain, 1 mg/kg): 120 ng/mL and 1320 ng/g | Kp at 6 h ([4]; 0.5 mg/kg): 17.9 | Kp at 6 h ([4]; 1 mg/kg): 17.6 | concentration at 6 h ([4]; plasma, 0.5 mg/kg): 38.5 ng/mL | concentration at 6 h ([4]; plasma, 1 mg/kg): 75.3 ng/mL
Compound: CC(C)C[C@](C)(N)COc1ccc(-c2c[nH]c3ncc(F)cc23)nc1C(F)F [Compound 26, (S)-1-{[2-(difluoromethyl)-6-(5-fluoro-1H-pyrrolo[2,3-b]pyridin-3-yl)pyridin-3-yl]oxy}-2,4-dimethylpentan-2-amine]
MWT (g) After modeling ([3]; 0.5 mg/kg group, x±s, n=5): 6.97 ± 2.16 g | Pain threshold improvement rate 2h ([3]; 0.5 mg/kg single ig.): 50.87 | MWT (g) 2h ([3]; 0.5 mg/kg single ig., x±s, n=5): 7.50 ± 2.37 g | Pain threshold improvement rate 3 h ([3]; 0.5 mg/kg single ig.): 54.93 | MWT (g) 3 h ([3]; 0.5 mg/kg single ig., 3 h after administration, x±s, n=5): 9.63 ± 3.40 g | Pain threshold improvement rate 4h ([3]; 0.5 mg/kg single ig.): 35.29 | MWT (g) 4 h ([3]; 0.5 mg/kg single ig., x±s, n=5): 6.23 ± 2.10 g | Pain threshold improvement rate 5 h ([3]; 0.5 mg/kg single ig.): 28.18 | MWT (g) 5 h ([3]; 0.5 mg/kg single ig., x±s, n=5): 5.61 ± 3.00 g | Pain threshold improvement rate 6h ([3]; 0.5 mg/kg single ig.): 24.02 | MWT (g) 6h ([3]; 0.5 mg/kg single ig., x±s, n=5): 4.82 ± 1.07 g | duration of analgesia ([3]; 0.5 mg/kg): ≤ 4 h | MWT (g) After modeling ([3]; 1 mg/kg group, x±s, n=5): 7.28 ± 2.09 g | Pain threshold improvement rate 2h ([3]; 1 mg/kg single ig.): 71.05 | MWT (g) 2h ([3]; 1 mg/kg single ig., x±s, n=5): 12.72 ± 3.12 g | Pain threshold improvement rate 3 h ([3]; 1 mg/kg single ig.): 58.89 | Pain threshold improvement rate 4h ([3]; 1 mg/kg single ig.): 59.53 | MWT (g) 4 h ([3]; 1 mg/kg single ig., x±s, n=5): 9.96 ± 4.93 g | Pain threshold improvement rate 5 h ([3]; 1 mg/kg single ig.): 20.88 | MWT (g) 5 h ([3]; 1 mg/kg single ig., x±s, n=5): 5.10 ± 1.55 g | Pain threshold improvement rate 6h ([3]; 1 mg/kg single ig.): 9.51 | MWT (g) 6h ([3]; 1 mg/kg single ig., x±s, n=5): 4.05 ± 0.66 g | duration of analgesia ([3]; 1 mg/kg): ≤ 4 h
